Laboratory results taken from US20130095151A1, “BROAD SPECTRUM SUNSCREEN COMPOSITION COMPRISING 2 HYDROXY SULFOBETAINE OF CINNAMIDOALKYL AMINE” (GALAXY SURFACTANTS LTD., priority 2010, published 2013).

How the values were obtained:
[1] = free acid, not neutralised; cited from earlier work
[2] = photostability: remaining content of AVB after exposing the formulas to sunlight, UV spectrophotometer vs unexposed control; type: physicochemical; details: in sunscreen creams with AVB/OCN
Protocol: Furthermore, the formulas I to 4 above where tested for photostability by exposing the formulas to sunlight for three hours (10 am to 1 pm, 2 Jun. 2011, Navi Mumbai, INDIA). The remaining content of AVB was measured using UV Spectrophotometer and compared to unexposed control.

Compound | solubility in water [1] [% w/w] | photostability compared to PBSA and OMC [2]
O=S(=O)(O)c1ccc2[nH]c(-c3ccccc3)nc2c1 [Phenylbenzimidazole Sulfonic Acid] | 0.25 | 
COc1ccc(/C=C/C(=O)NCCC[N+](C)(C)CC(O)CS(=O)(=O)[O-])cc1 (centres unmarked) [SunBeat, 3-(N-p-Methoxycinnamidopropyl, N,N-Dimethyl Ammonium)-2-Hydroxypropane-1-Sulphonate] |  | enhanced photostability
